Assay results reported in patent US9101638B2, “Boronic acid derivatives and therapeutic uses thereof” (Rempex Pharmaceuticals, Inc., priority 2013, dated 2015).
Where two headings read alike, the source gives them in different places.

Tests used:
KP1009 (CTX-M-15) = assay: Potentiation of tigemonam, strain KP1009; settings: minimum BLI concentration inhibiting growth with 4 μg/mL tigemonam
Plasmin = target: T1, Plasmin (Homo sapiens, UniProt P00747); assay: Serine protease inhibition: plasmin; format: biochemical, mammalian; settings: Table 8A, class symbols; read-out: IC50 Plasmin
T1 construct: Plasmin; MPBio; 19419890; purchased MPBio 19419890
T1 sequence (P00747 581-810 limits assumed, species assumed): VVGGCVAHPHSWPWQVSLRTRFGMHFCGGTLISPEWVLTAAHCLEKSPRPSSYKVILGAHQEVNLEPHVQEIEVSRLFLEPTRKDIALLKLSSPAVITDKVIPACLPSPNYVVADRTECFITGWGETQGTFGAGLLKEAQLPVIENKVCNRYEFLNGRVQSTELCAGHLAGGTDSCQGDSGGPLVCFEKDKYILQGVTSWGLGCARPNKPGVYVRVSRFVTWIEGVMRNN
T1 sequence (P00747 97-580 partner limits assumed, species assumed): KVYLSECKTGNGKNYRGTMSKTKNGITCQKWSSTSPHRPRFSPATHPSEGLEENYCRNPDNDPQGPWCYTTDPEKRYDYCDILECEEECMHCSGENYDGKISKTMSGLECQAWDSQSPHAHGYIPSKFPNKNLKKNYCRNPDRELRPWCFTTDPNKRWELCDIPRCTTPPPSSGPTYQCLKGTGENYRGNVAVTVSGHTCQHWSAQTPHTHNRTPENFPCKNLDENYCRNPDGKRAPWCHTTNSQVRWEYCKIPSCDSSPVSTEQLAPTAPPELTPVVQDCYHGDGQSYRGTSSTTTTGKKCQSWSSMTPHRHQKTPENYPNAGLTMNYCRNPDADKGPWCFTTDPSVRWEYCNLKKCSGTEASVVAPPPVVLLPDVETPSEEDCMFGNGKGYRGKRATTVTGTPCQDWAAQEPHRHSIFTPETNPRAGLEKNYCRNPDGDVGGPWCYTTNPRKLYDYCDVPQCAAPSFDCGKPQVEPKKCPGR
Method: (§1) The effect of selected BLIs on the enzymatic activity of some common mammalian serine proteases was evaluated.
(§2) 50 μl of the diluted enzyme was mixed with 50 μl of inhibitor at various concentrations and 50 μl of corresponding buffer (Table 7). Reaction mixtures were incubated for 10 min at 37° C. Subsequently, 50 μl of corresponding substrate (Table 7) was added and absorbance or fluorescence was monitored for 30 min on SpectraMax M2 plate reader (Molecular Devices). 4-(2-Aminoethyl)benzenesulfonyl fluoride hydrochloride (AEBSF) and leupeptin were used as positive controls. Rates of reaction were calculated and presented relative to “no treatment” control.

[1] = target: T2, Dipeptidyl peptidase 7 (DPP7) (Homo sapiens, UniProt Q9UHL4); assay: Serine protease inhibition: DPP7; format: biochemical, mammalian; settings: Table 8B; read-out: IC50 DPP7
T2 construct: purchased R&D Systems 3438-SE
Method: as §1, §2

ec308 (SHV-5) [2] = assay: Potentiation of tigemonam, strain ec308; format: cell-based; settings: minimum BLI concentration inhibiting growth with 4 μg/mL tigemonam
Chymotrypsin = target: T3, Chymotrypsin (Bos taurus, UniProt P00766); assay: Serine protease inhibition: chymotrypsin; format: biochemical, mammalian; settings: Table 8A, class symbols; read-out: IC50 Chymotrypsin
T3 construct: purchased Calbiochem 230832
Method: as §1, §2

PAM1032/KPC-2 = assay: Biapenem potentiation in PAM1032/KPC-2 (MexAB-OprM overexpressed); format: cell-based, Pseudomonas aeruginosa; settings: BLI potency to decrease biapenem MIC 64-fold, 32 to 0.5 μg/ml; efflux proficient strain
Method: (§3) Efflux of BLIs from Pseudomonas aeruginosa by the MexAB-OprM efflux pump was also evaluated. […] Due to expression of KPC-2 both strains became resistant to biapenem. […] Potency of BLIs to potentiate biapenem in these strains was determined. […] The ratio of MPC64 values for each BLI in PAM1032/KPC-2 (efflux proficient) and PAM1154/KPC-2 (efflux deficient) was determined to generate the Efflux Index (EI).

EC1010 (CMY-6) = format: cell-based
KP1004 (K-2) = assay: Potentiation of aztreonam, strain KP1004; format: cell-based; settings: minimum BLI concentration inhibiting growth with 4 μg/mL aztreonam
CathepsinA = target: T4, CathepsinA (Homo sapiens, UniProt P10619); assay: Serine protease inhibition: cathepsin A; format: biochemical, mammalian; settings: Table 8B; read-out: IC50 CathepsinA
T4 construct: purchased R&D Systems 1049-SE
T4 sequence (P10619 29-480): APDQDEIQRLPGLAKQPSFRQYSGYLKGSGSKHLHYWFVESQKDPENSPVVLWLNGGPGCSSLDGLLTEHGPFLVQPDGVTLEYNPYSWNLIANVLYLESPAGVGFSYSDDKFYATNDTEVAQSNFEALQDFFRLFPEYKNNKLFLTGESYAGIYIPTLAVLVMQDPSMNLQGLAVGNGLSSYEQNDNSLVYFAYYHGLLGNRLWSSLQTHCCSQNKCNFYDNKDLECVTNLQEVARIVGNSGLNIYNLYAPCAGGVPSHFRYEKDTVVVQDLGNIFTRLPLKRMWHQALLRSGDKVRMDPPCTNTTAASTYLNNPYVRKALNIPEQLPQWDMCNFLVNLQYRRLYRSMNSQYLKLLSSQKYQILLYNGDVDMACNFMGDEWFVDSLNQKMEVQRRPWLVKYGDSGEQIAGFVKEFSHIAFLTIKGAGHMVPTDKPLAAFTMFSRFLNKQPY
In short: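 Enzyme + inhibitor (various concns), enzyme-specific buffer, 10 min, 37° C; add matching substrate; read absorbance/fluorescence 30 min. Rates vs no-treatment control. AEBSF, leupeptin as positive controls.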

Urokinase = target: T5, Urokinase (Homo sapiens, UniProt P00749); assay: Serine protease inhibition: urokinase; format: biochemical, mammalian; settings: Table 8A, class symbols; read-out: IC50 Urokinase
T5 construct: purchased Calbiochem 672112
Method: as §1, §2

PAM1154/KPC-2 = assay: Biapenem potentiation in PAM1154/KPC-2 (MexAB-OprM lacking); format: cell-based, Pseudomonas aeruginosa
Method: as §3

ec302 (TEM-10) = assay: Potentiation of aztreonam, strain ec302; format: cell-based
[3] = target: T6, Dipeptidyl peptidase 9 (DPP9) (Homo sapiens, UniProt Q86TI2); assay: Serine protease inhibition: DPP9; format: biochemical, mammalian; settings: Table 8B; read-out: IC50 DPP9
T6 construct: purchased BPS Bioscience 80090
T6 sequence (Q86TI2 whole entry): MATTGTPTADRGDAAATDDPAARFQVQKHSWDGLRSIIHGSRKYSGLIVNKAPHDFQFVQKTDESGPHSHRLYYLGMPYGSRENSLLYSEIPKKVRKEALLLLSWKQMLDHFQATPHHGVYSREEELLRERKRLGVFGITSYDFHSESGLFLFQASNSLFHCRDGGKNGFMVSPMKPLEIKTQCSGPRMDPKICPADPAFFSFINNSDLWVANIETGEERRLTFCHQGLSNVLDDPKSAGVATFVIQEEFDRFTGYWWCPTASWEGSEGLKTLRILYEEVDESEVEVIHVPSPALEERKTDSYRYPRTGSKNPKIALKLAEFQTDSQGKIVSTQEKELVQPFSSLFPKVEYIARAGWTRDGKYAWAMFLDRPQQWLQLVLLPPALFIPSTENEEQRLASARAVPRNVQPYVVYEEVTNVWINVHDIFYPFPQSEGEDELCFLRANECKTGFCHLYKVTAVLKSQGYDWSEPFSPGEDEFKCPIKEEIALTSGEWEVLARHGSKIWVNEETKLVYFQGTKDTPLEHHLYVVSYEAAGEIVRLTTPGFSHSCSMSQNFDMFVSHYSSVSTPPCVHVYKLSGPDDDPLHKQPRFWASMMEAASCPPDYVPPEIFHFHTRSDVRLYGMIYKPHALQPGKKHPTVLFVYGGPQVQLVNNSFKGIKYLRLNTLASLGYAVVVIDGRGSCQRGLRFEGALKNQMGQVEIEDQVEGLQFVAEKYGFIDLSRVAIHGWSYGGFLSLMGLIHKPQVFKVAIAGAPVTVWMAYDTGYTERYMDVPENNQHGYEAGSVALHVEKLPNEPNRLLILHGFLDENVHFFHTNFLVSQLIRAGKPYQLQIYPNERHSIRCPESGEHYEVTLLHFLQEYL
Method: as §1, §2

Trypsin = target: T7, Trypsin (Bos taurus, UniProt P00760); assay: Serine protease inhibition: trypsin; format: biochemical, mammalian; settings: Table 8A, class symbols; read-out: IC50 Trypsin
T7 construct: purchased Calbiochem 6502
T7 sequence (P00760 24-246): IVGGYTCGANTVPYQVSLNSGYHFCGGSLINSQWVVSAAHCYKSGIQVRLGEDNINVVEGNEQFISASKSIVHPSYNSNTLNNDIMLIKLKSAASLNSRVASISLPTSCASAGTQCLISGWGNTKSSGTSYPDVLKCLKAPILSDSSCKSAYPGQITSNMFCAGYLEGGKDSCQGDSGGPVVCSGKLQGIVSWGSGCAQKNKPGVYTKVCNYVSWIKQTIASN
Method: as §1, §2

Chymase = target: T8, Chymase (Homo sapiens, UniProt P23946); assay: Serine protease inhibition: chymase; format: biochemical, mammalian; settings: Table 8A, class symbols; read-out: IC50 Chymase
T8 construct: purchased Enzo Lifescience BML-SE281
T8 sequence (P23946 22-247): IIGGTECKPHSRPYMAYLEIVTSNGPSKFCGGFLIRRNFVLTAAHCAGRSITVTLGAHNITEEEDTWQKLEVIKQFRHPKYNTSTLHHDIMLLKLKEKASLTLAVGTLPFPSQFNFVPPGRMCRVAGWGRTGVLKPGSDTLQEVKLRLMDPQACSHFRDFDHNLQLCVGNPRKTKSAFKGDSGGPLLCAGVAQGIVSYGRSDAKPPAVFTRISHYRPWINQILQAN
Method: as §1, §2

KP1005 (CTX-M-14) = assay: Potentiation of aztreonam, strain KP1005; format: cell-based
ECL1002 = assay: Potentiation of aztreonam, strain ECL1002; format: cell-based; settings: minimum BLI concentration inhibiting growth with 4 μg/mL aztreonam
SHV-12 = SHV-12 (Klebsiella pneumoniae, UniProt P0AD64, E235K/G234S/L31Q); assay: Inhibition of nitrocefin cleavage by purified SHV-12; format: biochemical
SHV-12, sequence (P0AD64 22-286 L31Q/G234S/E235K): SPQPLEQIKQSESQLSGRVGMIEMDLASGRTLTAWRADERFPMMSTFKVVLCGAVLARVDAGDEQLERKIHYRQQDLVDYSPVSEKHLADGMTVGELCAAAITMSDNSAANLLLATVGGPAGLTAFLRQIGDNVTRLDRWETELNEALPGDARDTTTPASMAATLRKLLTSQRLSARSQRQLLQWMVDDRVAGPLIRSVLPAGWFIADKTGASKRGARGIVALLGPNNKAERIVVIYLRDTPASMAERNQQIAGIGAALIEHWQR
In short: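 Purified enzyme was preincubated with a range of inhibitor concentrations in reaction buffer for 10 min at room temperature. Nitrocefin was then added and its cleavage followed at 490 nm every 10 sec for 10 min.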

ec308 (SHV-5) [4] = assay: Potentiation of aztreonam, strain ec308; format: cell-based; settings: minimum BLI concentration inhibiting growth with 4 μg/mL aztreonam
[5] = nitrocefin reporter substrate, purified enzyme, read-out: Ki (SHV-12, NCF)

| Structure (SMILES) | TIG MPC4 CTX-M-15 KP1009 (KP1009 (CTX-M-15)) | IC50 (Plasmin) [µM] | IC50 [1] [µM] | TIG MPC4 SHV-5 ec308 (ec308 (SHV-5) [2]) | IC50 (Chymotrypsin) [µM] | PAM1032/KPC-2 Biapenem MPC64 (PAM1032/KPC-2) | TIG MPC4 CMY-6 EC1010 (EC1010 (CMY-6)) | AZT MPC4 K-2 KP1004 (KP1004 (K-2)) | IC50 (CathepsinA) [µM] | IC50 (Urokinase) [µM] | PAM1154/KPC-2 Biapenem MPC64 (PAM1154/KPC-2) | AZT MPC4 TEM-10 ec302 (ec302 (TEM-10)) | IC50 [3] [µM] | IC50 (Trypsin) [µM] | IC50 (Chymase) [µM] | AZT MPC4 CTX-M-14 KP1005 (KP1005 (CTX-M-14)) | AZT MPC4 ECL1002 (ECL1002) | Ki (SHV-12) [µM] | AZT MPC4 SHV-5 ec308 (ec308 (SHV-5) [4]) | Ki (SHV-12; [5]) [µM] |
| --- | --- | --- | --- | --- | --- | --- | --- | --- | --- | --- | --- | --- | --- | --- | --- | --- | --- | --- | --- | --- |
| CSC(=O)N[C@H]1Cc2cccc(C(=O)O)c2OB1O [Compound 11, (R)-2-hydroxy-3-(methylthiocarbonylamino)-3,4-dihydro-2H-benzo[e][1,2]oxaborinine-8-carboxylic acid] | Y (Y = MIC of 1 μg/mL to 10 μg/mL) | > 800 | > 500 | Y (Y = MIC of 1 μg/mL to 10 μg/mL) | > 800 | Z (Z Greater than 40) | X (key: X = MIC of less than 1 μg/mL; Y = MIC of 1 μg/mL to 10 μg/mL; Z = MIC of greater than 10 μg/mL) | Y (Y = MIC of 1 μg/mL to 10 μg/mL) | 15 to 500 | > 800 | X (key: X = Less than 10; Y = 10 to 40; Z Greater than 40) | Y (key: X = MIC of less than 1 μg/mL; Y = MIC of 1 μg/mL to 10 μg/mL; Z = MIC of greater than 10 μg/mL) | > 500 | > 800 | > 800 | Y (key: X = MIC of less than 1 μg/mL; Y = MIC of 1 μg/mL to 10 μg/mL; Z = MIC of greater than 10 μg/mL) | Y (Y = MIC of 1 μg/mL to 10 μg/mL) | < 0.001 | X (X = MIC of less than 1 μg/mL) | – |
| [N-]=[N+]=NCC(=O)N[C@H]1Cc2cccc(C(=O)O)c2OB1O [Compound 8, (R)-3-(2-azidoacetamido)-2-hydroxy-3,4-dihydro-2H-benzo[e][1,2]oxaborinine-8-carboxylic acid] | X (X = MIC of less than 1 μg/mL) | > 800 | > 500 | Y (Y = MIC of 1 μg/mL to 10 μg/mL) | > 800 | Y (Y = 10 to 40) | X (key: X = MIC of less than 1 μg/mL; Y = MIC of 1 μg/mL to 10 μg/mL; Z = MIC of greater than 10 μg/mL) | X (X = MIC of less than 1 μg/mL) | 15 to 500 | > 800 | X (key: X = Less than 10; Y = 10 to 40; Z Greater than 40) | Y (key: X = MIC of less than 1 μg/mL; Y = MIC of 1 μg/mL to 10 μg/mL; Z = MIC of greater than 10 μg/mL) | > 500 | > 800 | > 800 | X (key: X = MIC of less than 1 μg/mL; Y = MIC of 1 μg/mL to 10 μg/mL; Z = MIC of greater than 10 μg/mL) | Y (Y = MIC of 1 μg/mL to 10 μg/mL) | – | X (X = MIC of less than 1 μg/mL) | < 0.001 |
| O=C(CSc1nncs1)N[C@H]1Cc2cccc(C(=O)O)c2OB1O [Compound 7, (R)-3-(2-(1,3,4-thiadiazol-2-ylthio)acetamido)-2-hydroxy-3,4-dihydro-2H-benzo[e][1,2]oxaborinine-8-carboxylic acid] | X (X = MIC of less than 1 μg/mL) | > 800 | > 500 | X (X = MIC of less than 1 μg/mL) | > 800 | Z (Z Greater than 40) | X (key: X = MIC of less than 1 μg/mL; Y = MIC of 1 μg/mL to 10 μg/mL; Z = MIC of greater than 10 μg/mL) | Y (Y = MIC of 1 μg/mL to 10 μg/mL) | 15 to 500 | > 800 | X (key: X = Less than 10; Y = 10 to 40; Z Greater than 40) | Y (key: X = MIC of less than 1 μg/mL; Y = MIC of 1 μg/mL to 10 μg/mL; Z = MIC of greater than 10 μg/mL) | > 500 | > 800 | > 800 | X (key: X = MIC of less than 1 μg/mL; Y = MIC of 1 μg/mL to 10 μg/mL; Z = MIC of greater than 10 μg/mL) | Y (Y = MIC of 1 μg/mL to 10 μg/mL) | – | X (X = MIC of less than 1 μg/mL) | < 0.001 |
| Nc1nnc(SCC(=O)N[C@H]2Cc3cccc(C(=O)O)c3OB2O)s1 [Compound 5, (R)-3-(2-(5-amino-1,3,4-thiadiazol-2-ylthio)acetamido)-2-hydroxy-3,4-dihydro-2H-benzo[e][1,2]oxaborinine-8-carboxylic acid] | X (X = MIC of less than 1 μg/mL) | > 800 | > 500 | Y (Y = MIC of 1 μg/mL to 10 μg/mL) | > 800 | Y (Y = 10 to 40) | X (key: X = MIC of less than 1 μg/mL; Y = MIC of 1 μg/mL to 10 μg/mL; Z = MIC of greater than 10 μg/mL) | Y (Y = MIC of 1 μg/mL to 10 μg/mL) | 15 to 500 | > 800 | X (key: X = Less than 10; Y = 10 to 40; Z Greater than 40) | Y (key: X = MIC of less than 1 μg/mL; Y = MIC of 1 μg/mL to 10 μg/mL; Z = MIC of greater than 10 μg/mL) | > 500 | > 800 | 300 to 800 | X (key: X = MIC of less than 1 μg/mL; Y = MIC of 1 μg/mL to 10 μg/mL; Z = MIC of greater than 10 μg/mL) | Y (Y = MIC of 1 μg/mL to 10 μg/mL) | – | X (X = MIC of less than 1 μg/mL) | – |
